Test results taken from paper PMC6515668, “Liposomes for effective drug delivery to the ocular posterior chamber” (Journal of Nanobiotechnology, 2019).
Structures can show the parent of a compound that is named as a salt.

Assays:
[1] = Microdialysis probe recovery and stability (dialysis and retrodialysis); conditions: retrodialysis, 7 h
Method: Normal saline containing 30% ethanol was chosen as the perfusate for two drugs with opposing polarity, and the flow rate was 1.5 μL/min according to our previous study. Then, an in vitro RR% evaluation was performed via dialysis and retrodialysis. The in vivo stability study was performed using a retrodialysis method, which provided the evidence for the microdialysis method that was used for the in vivo pharmacokinetics study.

ARPE-19 = assay: In vitro anti-ROS efficacy (H2O2-exposed cells, DCFH-DA); assay type: cell-based, human; conditions: ARPE-19 exposed to 200 μM H2O2 for 24 h, versus model group
Method: Human retinal pigment epithelial cells (ARPE-19) were maintained in Dulbecco’s modified Eagle’s medium/Ham’s F12 (Gibco) supplemented with 10% fetal bovine serum (Gibco), 100 IU/mL penicillin (Gibco), and 100 μg/mL streptomycin (Gibco) at 37 °C in an atmosphere of 5% CO2. After incubation, cells were exposed to 200 μM H2O2 for 24 h, and fluorescent probes (Beyotime Biotechnology, China) were used to measure intracellular ROS levels (DCFH-DA, 10 mM) according to the manufacturer’s instructions. Before application, CBLs and P-CBLs of a certain volume were diluted with complete culture medium. The final concentration of BBH was 0.0040 μM and 0.0020 μM for CHR in CBLs groups, while 0.0044 μM of BBH, 0.0018 μM for CHR for P-CBLs, respectively. The final drug concentration of CBs was the same as CBLs group. Treated cells were loaded with fluorescent probes in a serum-free medium for 20 min at 37 °C. Then, photographs were taken using a long-term real-time dynamic live cell imaging analyzer.

stability in in vivo analysis [1] | Compound | intracellular ROS levels (relative fluorescence ratio) (ARPE-19)
good stability for 7 h | COc1ccc2cc3[n+](cc2c1OC)CCc1cc2c(cc1-3)OCO2 [BBH, berberine hydrochloride] | could reduce intracellular ROS levels effectively
good stability for 7 h | Cc1cc(O)c2c(c1)C(=O)c1cccc(O)c1C2=O [CHR, chrysophanol] | could reduce intracellular ROS levels effectively
